{"source": "patent US9839622B2", "about": "“Methods of treating hypothalamic obesity” (Zafgen, Inc., priority 2012, dated 2017)", "key": {"[1]": {"assay": "Mouse model of hypothalamic injury (gold thioglucose)", "format": "in vivo, C57/BL6 mice", "conditions": "0.1 mg/kg daily subcutaneous", "procedure": "FIG. 1 depicts body weight change (percent) of C57/BL6 mice treated with single dose of 0.5 g/kg gold thioglucose, and after 40 days, started on 0.1 mg/kg daily subcutaneous dose of 6-O-(4-dimethylaminoethoxy)cinnamoyl fumagillol (ZGN-440). FIG. 2 depicts normalized food intake in GTG mice to the level of normal mice that were not treated with gold thioglucose, after 0.1 mg/kg daily subcutaneous dose of 6-O-(4-dimethylaminoethoxy)cinnamoyl fumagillol. Gold thioglucose (GTG) is a chemical treatment used as a model of hypothalamic injury. C57/BL6 mice were treated with single dose of 0.5 g/kg gold thioglucose. After 40 days a cohort was started on 0.1 mg/kg daily subcutaneous dose of 6-O-(4-dimethylaminoethoxy)cinnamoyl fumagillol (ZGN-440). […] (FIG. 1). The food intake level of GTG treated mice was increased to over 3 g/day/mouse, where in GTG mice treated with ZGN-440 the food intake decreased to the level of normal mice that were not treated with gold thioglucose (below 3 g/day). (FIG. 2)."}, "[2]": {"assay": "Treatment of obese humans also taking anti-depressants known to cause hypothalamic obesity", "format": "in vivo, human", "conditions": "obese humans on anti-depressants, average dose 1.44 mg twice weekly subcutaneous", "procedure": "FIG. 3 depicts percentage reduction in body weight by up to seven weeks of treatment with 6-O-(4-dimethylaminoethoxy)cinnamoyl fumagillol (ZGN-440; average dose of 1.44 mg administered twice weekly by subcutaneous administration, n=5) or placebo (administered twice weekly by subcutaneous administration, n=2) in obese human patients treated otherwise for depression with mirtazapine, sertraline, imipramine, paroxetine, or amitryptyline.\nFive of these patients were also administered ZGN-440 (average dose of 1.44 mg, administered twice weekly by subcutaneous administration). On average, patients lost 5.4 percent of their baseline body weight over the seven week treatment. […] At baseline, the average (±SEM) body weight was 100.2±3.2 kg, and the average body mass index was 38.8±1.7 kg/m^2. […] (FIG. 3)."}}}
{"compound": "CO[C@@H]1[C@H](OC(=O)/C=C/c2ccc(OCCN(C)C)cc2)CC[C@]2(CO2)[C@H]1[C@@]1(C)O[C@@H]1CC=C(C)C", "note": "[ZGN-440, 6-O-(4-dimethylaminoethoxy)cinnamoyl fumagillol]", "values": [{"measurement": "body weight change", "setting": "[1]; GTG (0.5 g/kg single dose) C57/BL6 mice, started after 40 days, FIG. 1", "result": "Significant weight loss"}, {"measurement": "food intake", "setting": "[1]; GTG mice, untreated GTG mice over 3 g/day/mouse, FIG. 2", "result": "below 3 g/day"}, {"measurement": "loss of baseline body weight (average)", "setting": "[2]; n=5, seven week treatment, FIG. 3", "result": 5.4, "unit": "%"}, {"measurement": "weight loss vs. placebo (percent change of body weight from baseline, Student's t test)", "setting": "[2]; up to seven weeks, placebo failed to lose weight", "result": "statistically significant"}]}
